For two molecules, IC50 and melting point results are on record in US8202871B2, “Indol-2-one derivatives disubstituted in the 3-position, preparation thereof and therapeutic use thereof” (Sanofi-Aventis, priority 2007, dated 2012).

For data set [1], the target named is T1, ghrelin receptor (Rattus norvegicus, UniProt O08725).
T1 construct: Strips of approximately 1 cm (5 mm wide) of gastric fundus were cut out along the longitudinal axis; from tissue; host or cells: rat gastric fundus strips
The data set can be described thus: Antagonism of ghrelin on electric-field-stimulated contractions of isolated rat gastric fundus strips (headed 'In Vivo Test'). The conditions noted are these: ghrelin 0.1 nM-1 μM concentration-response curves with and without antagonist, contact time 30 minutes, read-out: antagonist activity towards the ghrelin receptor, IC50. The procedure:
The compounds according to the invention underwent in vivo studies.
Male Crl CD BR rats (Charles River, Italy) weighing 150-175 g were housed in a chamber at regulated temperature (22±1° C.) and humidity (55±10%) and with a 12-hour lightness-darkness cycle, for at least 7 days before their use. Feed and water were available ad libitum. The feed was removed 18 hours before sacrificing the animals. The rats were sacrificed by cervical dislocation, and the stomach was removed surgically, opened along the shorter curvature and placed in a Krebs solution (of composition (mM): 118.4 NaCl; 4.7 KCl; 2.5 CaCl2; 3.7 NaH2PO4; 1.2 MgSO4; 25 NaHCO3; 5.6 glucose). The animals were cared for and sacrificed according to the Sanofi-Aventis international code of ethics and the international principles governing the care and treatment of laboratory animals (EEC Directive 86/609, DJL358, 1, 12 Dec. 1987). […] The contractions were recorded by computer with a data recording and analysis system (Power Lab, Chart 5) connected to isotonic transducers (Ugo Basile, Varese, Italy) via preamplifiers (Octal Bridge Amp). […] The pKb values for the antagonists were calculated according to the Cheng-Prusoff equation (Kenakin et al., Competitive Antagonism, Pharmacologic Analysis of Drug-Receptor Interaction, 3rd edition, 331-373, Philadelphia, New York; Raven: Lippincott, 1997).

T1 sequence (O08725 whole entry): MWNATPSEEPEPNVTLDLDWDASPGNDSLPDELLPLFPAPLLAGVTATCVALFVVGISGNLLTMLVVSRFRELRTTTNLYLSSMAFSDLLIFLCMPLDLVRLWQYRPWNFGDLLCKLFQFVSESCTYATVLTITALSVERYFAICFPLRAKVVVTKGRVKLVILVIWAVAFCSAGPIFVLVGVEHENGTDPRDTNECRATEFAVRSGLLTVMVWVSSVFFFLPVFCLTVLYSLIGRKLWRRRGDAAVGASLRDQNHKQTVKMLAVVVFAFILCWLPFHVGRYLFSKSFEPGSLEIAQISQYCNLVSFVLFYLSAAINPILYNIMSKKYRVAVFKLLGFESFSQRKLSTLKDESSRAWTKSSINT

The IC50 is the midpoint of a concentration-inhibition curve. The term melting point denotes the temperature, or range, at which the solid turns liquid. Regarding `CN1CCN(CC(=O)NC2(c3ccc(Cl)cc3)C(=O)Nc3cc(Cl)c(Cl)cc32)CC1` (single isomer, unassigned; (+)) [Compound 1, (+)-N-[5,6-Dichloro-3-(4-chlorophenyl)-2-oxo-2,3-dihydro-1H-indol-3-yl]-2-(4-methylpiperazin-1-yl)acetamide], the melting point is 207.1 to 207.6 °C. Moreover, in data set [1], the IC50 turned out to be 50 nM.
Take `CCN1CCC(CC(=O)NC2(c3ccc(C(F)(F)F)cc3)C(=O)Nc3cc(Cl)cc(Cl)c32)CC1` (single isomer, unassigned; (+)) [Compound 2, (+)-N-[4,6-Dichloro-3-(4-trifluoromethylphenyl)-2-oxo-2,3-dihydro-1H-indol-3-yl]-2-(1-ethylpiperid-4-yl)acetamide]: the melting point lay within 158 to 162 °C. The IC50 in data set [1] was 1 nM.
